Results on 2 compounds are retold here after patent US20130053243A1, “PLANTS HAVING INCREASED TOLERANCE TO HERBICIDES” (BASF SE, priority 2010, published 2013).

In assay [1] the target is T1, Arabidopsis HPPD variant Q293N (Arabidopsis thaliana, UniProt P93836, Q293N).
T1 construct: His6 (N); made in house; host or cells: E. coli BL21 (DE3)
In words: HPPD activity assay, mutant enzyme. The format is biochemical. As for the experimental part:
(§1) HPPD produces homogentisic acid and CO2 from 4-hydroxyphenylpyruvate (4-HPP) and O2. The activity assay for HPPD is based on the analysis of homogentisic acid by reversed phase HPLC.
(§2) The assay mixture can contain 150 mM potassium phosphate buffer pH 7.0, 50 mM L-ascorbic acid, 1 μM FeSO4 and 7 μg of purified enzyme in a total volume of 1 ml.
(§3) Inhibitors are dissolved in DMSO (dimethylsulfoxide) to a concentration of 20 mM or 0.5 mM, respectively. From this stock solution serial five-fold dilutions are prepared in DMSO, which are used in the assay. The respective inhibitor solution accounts for 1% of the assay volume. Thus, final inhibitor concentrations range from 200 μM to 2.5 nM or from 5 μM to 63 pM, respectively.
(§4) After a preincubation of 30 min the reaction is started by adding 4-HPP to a final concentration of 0.1 mM. The reaction is allowed to proceed for 120 min at room temperature. The reaction is stopped by addition of 100 μl of 4.5 M phosphoric acid.
(§5) The sample is extracted on an Oasis® HLB cartridge 3 cc/60 mg (Waters) that was preequilibrated with 63 mM phosphoric acid. L-ascorbic acid is washed out with 3 ml of 63 mM phosphoric acid. Homogentisate is eluted with 1 ml of a 1:1 mixture of 63 mM phosphoric acid and methanol (w/w).
(§6) 10 μl of the eluate is analyzed by reversed phase HPLC on a Symmetry® C18 column (particle size 3.5 μm, dimensions 4.6×100 mm; Waters) using 5 mM H3PO4/15% ethanol (w/w) as an eluent.
(§7) Homogentisic acid is detected electrochemically and quantified by measuring peak areas (Empower software; Waters).
(§8) Activities are normalized by setting the uninhibited enzyme activity to 100%. IC50 values are calculated using non-linear regression.
(§9) The assay mixture can contain 150 mM potassium phosphate buffer pH 7.0, 50 mM L-ascorbic acid, 100 μM Catalase (Sigma-Aldrich), 1 μM FeSO4 and 0.2 units of purified HPPD enzyme in a total volume of 505 μl. 1 unit is defined as the amount of enzyme that is required to produce 1 nmol of HGA per minute at 20° C.
(§10) After a preincubation of 30 min the reaction is started by adding 4-HPP to a final concentration of 0.05 mM. The reaction is allowed to proceed for 45 min at room temperature. The reaction is stopped by the addition of 50 μl of 4.5 M phosphoric acid. The sample is filtered using a […] pore size PVDF filtration device.
(§11) 5 μl of the cleared sample is analyzed on an Atlantis T3 column (particle size 3 μm, dimensions 3×50 mm; Waters) by isocratic elution using 90% 10 mM NaH2PO4 pH 2.2, 10% methanol (v/v).
(§12) HGA is detected electrochemically at 750 mV (mode: DC; polarity: positive) and quantified by integrating peak areas (Empower software; Waters).
(§13) Inhibitors are dissolved in DMSO (dimethylsulfoxide) to a concentration of 0.5 mM. From this stock solution serial five-fold dilutions are prepared in DMSO, which are used in the assay. The respective inhibitor solution accounts for 1% of the assay volume. Thus, final inhibitor concentrations range from 5 μM to 320 pM, respectively. Activities are normalized by setting the uninhibited enzyme activity to 100%. IC50 values are calculated using non-linear regression.
(§14) Purified, mutant HPPD enzymes are obtained by the methods described above. Dose response and kinetic measurements are carried out using the described HPPD activity assay. Apparent michaelis constants (Km) and maximal reaction velocities (Vmax) are calculated by non-linear regression with the software GraphPad Prism 5 (GraphPad Software, La Jolla, USA) using a substrate inhibition model. Apparent kcat values are calculated from Vmax assuming 100% purity of the enzyme preparation. Weighted means (by standard error) of Km and IC50 values are calculated from at least three independent experiments. The Cheng-Prusoff equation for competitive inhibition (Cheng, Y. C.; Prusoff, W. H. Biochem Pharmacol 1973, 22, 3099-3108) is used to calculate dissociation constants (Ki). Examples of the data obtained are depicted in Table 13.

In assay [2] the target is T2, Arabidopsis HPPD variant Q293H (Arabidopsis thaliana, UniProt P93836, Q293H).
T2 construct: His6 (N); made in house; host or cells: E. coli BL21 (DE3)
In words: HPPD activity assay, mutant enzyme. The format is biochemical. As for the experimental part: as §1, §2, §3, §4, §5, §6, §7, §8, §9, §10, §11, §12, §13, §14

Assay [3] concerns the target Chlamydomonas HPPD1 (Chlamydomonas reinhardtii, UniProt A0A2K3DET7). In words: HPPD activity assay, wildtype enzyme. The conditions noted are these: calculated from IC50 with Cheng-Prusoff equation, read-out: dissociation constant Ki. The format is biochemical. The method, then:
as §1, §2
Inhibitors are dissolved in DMSO (dimethylsulfoxide) to a concentration of 20 mM or 0.5 mM, respectively. From this stock solution serial five-fold dilutions are prepared in DMSO, which are used in the assay. The respective inhibitor solution accounts for 1% of the assay volume.
as §4, §8
The assay mixture can contain 150 mM potassium phosphate buffer pH 7.0, 50 mM L-ascorbic acid, 100 μM Catalase (Sigma-Aldrich), 1 μM FeSO4 and 0.2 units of purified HPPD enzyme in a total volume of 505 μl. […]
as §12
Inhibitors are dissolved in DMSO (dimethylsulfoxide) to a concentration of 0.5 mM. […] IC50 values are calculated using non-linear regression.
Using methods which are described in the above examples or well known in the art, purified, recombinant wildtype HPPD enzymes are characterized with respect to their kinetic properties and sensitivity towards HPPD inhibiting herbicides. Apparent michaelis constants (Km) and maximal reaction velocities (Vmax) are calculated by non-linear regression with the software GraphPad Prism 5 (GraphPad Software, La Jolla, USA) using a substrate inhibition model. […] Weighted means (by standard error) of Km and IC50 values are calculated from at least three independent experiments.

For assay [4], the system named is C. reinhardtii (CC-503). Put plainly: C. reinhardtii growth inhibition by HPPD inhibiting herbicides. The format is cell-based, Chlamydomonas reinhardtii. The text has this: Bleaching herbicides with a mode of action in plastoquinone or tocopherol biosynthesis can inhibit algae growth (Tables 14 and 15). These effects can be partly reversed by intermediates of homogentisic acid biosynthesis (Table 14). To generate mutations conferring “coumarone-derivative herbicide” resistance in HPPD or HST genes, chemical or UV mutagenesis can be used. Especially unicellular organisms like Chlamydomonas reinhardtii or Scenedesmus obliquus are useful for identifying dominant mutations in herbicide resistance.
Algae cells of Chlamydomonas reinhardtii strains CC-503 and CC-1691 (Duke University, Durham, USA) are propagated in TAP medium (Gorman and Levine (1965) PNAS 54: 1665-1669) by constant shaking at 100 rpm, 22° C. and 30 μmol Phot*m^−2*[…] light illumination. Scenedesmus obliquus (University of Gottingen, Germany) are propagated in algae medium as described (Boger and Sandmann, (1993) In: Target assays for modern herbicides and related phytotoxic compounds, Lewis Publishers) under same culturing conditions as mentioned for Chlamydomonas. Compound screening is performed at 450 μmol Phot*m^−2*[…] illumination.

T2 sequence (P93836 whole entry Q293H): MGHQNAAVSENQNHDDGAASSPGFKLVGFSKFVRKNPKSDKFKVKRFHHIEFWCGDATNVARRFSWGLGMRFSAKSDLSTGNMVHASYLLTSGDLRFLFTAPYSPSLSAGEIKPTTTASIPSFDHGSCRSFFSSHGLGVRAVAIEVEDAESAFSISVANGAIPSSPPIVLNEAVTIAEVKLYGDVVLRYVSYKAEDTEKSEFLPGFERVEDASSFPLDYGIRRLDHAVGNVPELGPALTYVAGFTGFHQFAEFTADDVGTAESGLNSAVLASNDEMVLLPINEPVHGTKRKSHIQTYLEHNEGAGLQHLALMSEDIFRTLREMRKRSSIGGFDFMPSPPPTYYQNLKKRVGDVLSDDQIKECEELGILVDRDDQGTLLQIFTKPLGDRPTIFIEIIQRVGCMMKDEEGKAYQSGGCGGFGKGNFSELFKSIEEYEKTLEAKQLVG
Chain of Chlamydomonas HPPD1 (A0A2K3DET7 entry or part of it): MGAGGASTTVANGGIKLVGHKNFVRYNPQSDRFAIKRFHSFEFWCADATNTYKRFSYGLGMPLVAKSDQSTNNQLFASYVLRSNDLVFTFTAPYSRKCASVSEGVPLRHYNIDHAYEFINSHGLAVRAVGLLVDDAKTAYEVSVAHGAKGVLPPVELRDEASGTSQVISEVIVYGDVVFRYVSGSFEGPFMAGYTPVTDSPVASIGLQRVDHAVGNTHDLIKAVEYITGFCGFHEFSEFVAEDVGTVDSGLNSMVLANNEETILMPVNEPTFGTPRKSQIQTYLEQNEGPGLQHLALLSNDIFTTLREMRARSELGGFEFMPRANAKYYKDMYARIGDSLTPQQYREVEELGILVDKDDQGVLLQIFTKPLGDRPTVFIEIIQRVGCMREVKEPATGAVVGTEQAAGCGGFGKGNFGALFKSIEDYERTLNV
T1 sequence (P93836 whole entry Q293N): as the sequence (P93836 whole entry Q293H) above, with H293N counted along it

As a reminder, the Ki is a measure of affinity in units of concentration, obtained from inhibition or displacement. Take `CC1=NOC(c2c(Cl)ccc(C3=C(O)c4ncccc4N(CC(F)F)S3(=O)=O)c2Cl)C1` (stereo not shown) [Inhibitor 1, 3-[2,4-dichloro-3-(3-methyl-4,5-dihydroisoxazol-5-yl)phenyl]-1-(2,2-difluoroethyl)-2,2-dioxo-pyrido[3,2-c]thiazin-4-ol]: the values for the inhibition constant Ki in assay [1], in assay [2] and in assay [3] were 41 nM, 23 nM and 29 nM, respectively.

For `Cc1c(C(=O)c2cnn(C)c2O)ccc(S(C)(=O)=O)c1C1=NOCC1` [Topramezone, reference compound], the “Growth inihibition [%] C. reinhardtii (CC-503)” value in assay [4] (c 1 * 10^−4 M) and in assay [4] (c 5 * 10^−4 M) was 100% each time. In addition, the “Growth inihibition [%] C. reinhardtii (CC-503) + Homogentisic acid” value came to 80% in assay [4] (c 1 * 10^−4 M) and 100% in assay [4] (c 5 * 10^−4 M). Further, the figures for the Ki in assay [1], in assay [2] and in assay [3] were 36 nM, 14 nM and 38 nM, respectively.
